Assay: Ex vivo radiometabolite analysis in brain and plasma
Conditions: CD1 mice, 30 min postinjection
Procedure: Next, ex vivo stability in the brain and plasma of CD1 mice was analyzed by radio-HPLC (Figure ). At 30 min postinjection, the parent fraction of [^18F]3 in the brain was determined to be 96%, indicating excellent in vivo metabolic stability. In the blood, 31% of the radioactivity remained intact.
A dose of 15 MBq of [^18F]3 in 0.1 mL saline was intravenously injected into the tail vein of CD1 mice (5–6 weeks). The mice were sacrificed at 30 min postinjection, and the mice brain and blood were quickly collected and homogenized with cold acetonitrile. […] The radioactivity for each fraction was measured using a γ counter (PerkinElmer Wizard). Data analysis was performed by GraphPad Prism 8.0, and the percentage of [^18F]3 relative to total radioactivity (corrected for decay) was calculated as (peak area for [^18F]3 /total peak area) × 100%.

For `O=C([C@H]1C[C@@H]1c1ccc([18F])cc1)N1CCN(C2CCCC2)CC1` [[^18F]3], the “parent fraction in the brain” value was 96%.

Reference: PMC12362585, “Development and Preclinical Characterization of [^18F]H3-2406 and [^18F]H3-2407 for Positron Emission Tomography Imaging of the Histamine Subtype‑3 Receptor” (Journal of Medicinal Chemistry, 2025)
